The values below are quoted from earlier work in the CATMoS acute toxicity set (Mansouri et al. 2021).

Several values for one entry are separate records, joined by “and”; a condition that tells them apart may be missing. Equal entries are not always repeated.

As a reminder, the LD50 is the dose expected to kill half of the subjects tested.

The data set in a line: rat acute oral toxicity. Conditions: in vivo. The source says:
[…]The data set underlying the modeling effort for this project was initially compiled by NICEATM and U.S. EPA’s CCTE. Briefly, LD50 data were collected from rat acute oral systemic toxicity tests, including limit tests, ranges/confidence intervals, and discrete LD50 values. The full data set included 21,200 LD50 entries for 15,688 substances. […] Data were reviewed to ensure that LD50 values with obvious errors in the extracted data such as unit conversion errors (e.g., comma and decimal separator misplacements) were either fixed or removed. After this review, 16,209 LD50 values remained. Many of the chemicals represented had multiple LD50 entries, requiring that a single representative value per Chemical Abstracts Service Registry Number (CASRN) identifier be defined to facilitate modeling efforts. Based on ATWG feedback and to define the representative LD50 as a protective value while accounting for the distribution across multiple LD50s, the median of the lowest quartile was computed using only discrete LD50 values (omitting limit test data and range and confidence interval data). A detailed summary of the data compilation is available online on the NICEATM webpage dedicated to the collaborative modeling project (NTP 2020).
[…][…] For categorical designations, limit test and range/confidence interval LD50 data were integrated wherever possible. As such, the number of chemicals with end point values/calls varies across the modeling end points (Table 3) based on whether chemicals had representative LD50 values and/or other data. If a chemical had both, the representative value was used to determine categorical calls rather than limit test data. Some data were useable only for certain end points and categories depending on the thresholds. For example, ranges that spanned multiple hazard categories were considered only for the binary (very toxic/nontoxic) end points and omitted from rendering a determination for hazard category assignment.
[…]The final data set comprising 11,992 chemicals was split into training and evaluation sets […], respectively. This process was performed semirandomly by ordering chemicals based on the five end points (categorical and continuous LD50 values) and partitioning every fourth record into the evaluation set accordingly. This approach was taken to ensure an equivalent distribution of the LD50 values and the different hazard categories between the training and the evaluation sets without supervised sampling of the chemicals based on structures (Figure 1A). The sources of the chemical structures were also kept equivalent between the two sets, with chemical structures obtained from DSSTox, being the highest quality, representing over 75% of each set (Figure 1B).
In the case of `CCOP(=S)(OCC)OC(=CCl)c1ccc(Cl)cc1Cl`, the LD50 is 10 mg/kg.
Regarding `CC(=O)Oc1ccc(Br)cc1C(=O)O`, the LD50 was 1130 mg/kg.
`NC(=O)CCN1CCN(C2Cc3cc(Cl)ccc3Sc3cc(F)ccc32)CC1` (stereo not given): the LD50 was 472 mg/kg and 490 mg/kg.
Take `CCC(C)NP1(=S)OCc2cc([N+](=O)[O-])ccc2O1` (stereo not given): the LD50 was 125 mg/kg.
Regarding `CCN(CC)CCOC1(c2ccc(Cl)cc2)CCCCC1`, the LD50 was 500 mg/kg.
In the case of `S=C1N=CC=NC(=S)SSSS1`, the LD50 was 8530 mg/kg.
For the compound `O=C(Cl)C(Cl)Cl`, the LD50 was 2460 mg/kg.
In the case of `CCN(CC)CCN`, the LD50 is 2830 mg/kg.
With `C=C1CC(C)C2C3Cc4ccc(O)cc4C2(CCN3CC2CCC2)C1` (stereo not given), the median lethal dose (LD50) is 750 mg/kg.
On to `BrCc1cccc(Oc2ccccc2)c1`, for which the LD50 is 2330 mg/kg.
With `CCCCOC(=O)CC(CC(=O)OCCCC)(OC(C)=O)C(=O)OCCCC`, the median lethal dose (LD50) is 31400 mg/kg.
Consider `FC(F)(F)c1nc2c(Br)c(Cl)c(Cl)c(Br)c2[nH]1`, for which the LD50 was 3.43 mg/kg.
With `O=C(Cl)C(c1ccccc1)c1ccccc1`, the LD50 is 6330 mg/kg.
On to `NS(=O)(=O)CCl`, for which the LD50 was 6050 mg/kg.
As for `CCN(CCC#N)c1cccc(C)c1`, the LD50 is 3710 mg/kg.
In the case of `CC(C)Cc1ccc(CC(=O)O)cc1`, the LD50 was 2300 mg/kg.
For `C1CCNC1`, the LD50 was 300 mg/kg.
In the case of `COc1cc(C(=O)OCCCN(C)CCN(C)CCCOC(=O)c2cc(OC)c(OC)c(OC)c2)cc(OC)c1OC`, the LD50 is 2550 mg/kg.
Take `CC=C(C)C(=O)N1CCCc2cc(C)ccc21`: the LD50 is 2200 mg/kg.
Consider `O=NN(c1cccc(C(F)(F)F)c1)c1ccccc1C(=O)O`, for which the LD50 is 900 mg/kg.
Regarding `CCC(C)Nc1ccc(NC(C)CC)cc1` (stereo not given), the LD50 is 148 mg/kg.
Turning to `CN(C)C(=O)c1sc(-c2cccnc2)nc1-c1ccccc1`, the LD50 was 1040 mg/kg.
With `CCOP(=S)(OCC)Oc1cnn(C)c(=O)c1OC`, the median lethal dose (LD50) was 2.5 mg/kg.
Turning to `CCC[C@]1(c2cccc(O)c2)CCN(C)C[C@@H]1C`, the LD50 is 887 mg/kg.
Consider `C[Si](C)(C)CC(=O)O`, for which the LD50 is 3000 mg/kg.
Regarding `Cc1ccc(SP(=S)(CCl)OC(C)C)cc1` (stereo not given), the LD50 was 204 mg/kg.
Take `CCSc1nnc(C(C)(C)C)c(=O)n1N`: the LD50 was 599 mg/kg.
With `C#CC(C)(C)N`, the LD50 was 1470 mg/kg.
As to `COC(=O)c1ccc(N=NN(C)C)cc1`, the 50% lethal dose (LD50) was 52 mg/kg.
For `COP(=O)(OC)OC(Cl)C(Cl)(Br)Br` (stereo not given), the LD50 is 49 mg/kg.
For the compound `O=S1(=O)CCC(Br)C1` (stereo not given), the median lethal dose (LD50) is 215 mg/kg.
In the case of `Cc1ccc(N=C=O)cc1`, the LD50 is 1600 mg/kg.
Turning to `OCC(Br)CBr` (stereo not given), the LD50 is 681 mg/kg.
As to `CCCCCCOCC(O)COc1ccccc1C(=O)O` (stereo not given), the LD50 was 2150 mg/kg.
With `CC(N)CN` (stereo not given), the LD50 was 2230 mg/kg.
For the compound `OC[C@@H](O)[C@@H](O)[C@H](O)[C@H](O)CO`, the LD50 was 13500 mg/kg.
Consider `CC1CCCCN1CCCOC(=O)c1ccc(OC2CCCCC2)cc1` (stereo not given), for which the LD50 was 2340 mg/kg.
With `COC(=O)CC(=O)OC`, the LD50 was 5330 mg/kg.
On to `O=C=NCC1CCC(CN=C=O)CC1` (stereo not given), for which the LD50 was 1600 mg/kg.
As for `CCOP(=S)(OCC)Oc1cc(C)[nH]n1`, the median lethal dose (LD50) is 12 mg/kg.
Turning to `CCOCCOCC`, the LD50 is 4390 mg/kg.
As to `N#CCCCCC(=O)O`, the LD50 was 1000 mg/kg.
In the case of `COc1ccc(CN2CCN(C(c3ccc(F)cc3)c3ccc(F)cc3)CC2)c(OC)c1OC`, the LD50 was 307 mg/kg.
Regarding `Oc1c(Cl)cc(Cl)c(Cl)c1Cl`, the LD50 is 140 mg/kg.
Consider `Cc1cccc(O)c1`, for which the median lethal dose (LD50) was 242 mg/kg.
Regarding `Oc1nc(O)nc(O)n1`, the LD50 was 7700 mg/kg.
Turning to `Cc1ccc(NCCCc2ccccc2)cc1`, the LD50 was 1600 mg/kg.
Turning to `C/C(=C\C(C)CC(C)CC(C)C)C1CC(=O)OC1=O` (stereo not given), the LD50 is 2550 mg/kg.
As for `O=C=Nc1cccc(Cl)c1`, the LD50 was 4200 mg/kg.
`CC(C)(C(N)=O)c1ccccc1`: the LD50 is 1650 mg/kg.
In the case of `CCC(C)N(C(=O)SCc1ccccc1)C(C)CC` (stereo not given), the LD50 was 10000 mg/kg.
As to `CCCCOC(=O)C(Cl)(Cl)C(Cl)=C(Cl)Cl`, the LD50 is 2090 mg/kg.
With `COc1ccc(CC2NCCc3cc(OC)c(OC)cc32)cc1OC` (stereo not given), the LD50 was 700 mg/kg.
In the case of `CCOC(=O)C1=C(COCCOCCN)NC(C)=C(C(=O)OC)[C@@H]1c1cccc(Cl)c1Cl`, the LD50 is 136 mg/kg.
Take `CC(=O)c1ccc2c(c1)N(CCCN1CCN(C)CC1)c1ccccc1S2`: the median lethal dose (LD50) was 650 mg/kg.
